In brackets after ≈: the same amount, converted by molar mass.
Legend:
[1] = Cytotoxicity against human Mel2 cells; assay type: functional; conditions: read-out: ED50 (the source's name)
[2] = Cytotoxicity against human Mel1 cells; assay type: functional; conditions: read-out: ED50 (the source's name)

Q: What does the source list for `C=C(C)[C@@H]1CC[C@]2(C(=O)O)CC[C@]3(C)[C@H](CC[C@@H]4[C@@]5(C)CC[C@H](O)C(C)(C)[C@@H]5C[C@H](O)[C@]43C)[C@@H]12`?
A: EC50 [1]: 7.2 µg/mL (≈ 15.2 µM); EC50 [2]: 17.1 µg/mL (≈ 36.2 µM)

Q: For `C=C(C)[C@@H]1CC[C@]2(C(=O)O)CC[C@]3(C)[C@H](CC[C@@H]4[C@@]5(C)[C@H](O)C[C@H](O)C(C)(C)[C@@H]5C[C@H](O)[C@]43C)[C@@H]12`, which EC50 [1] is on record?
A: The EC50 was over 20 µg/mL.

Q: And the EC50 [2]?
A: The EC50 was over 20 µg/mL.

Q: Which EC50 [1] does the source give for `C=C(C)[C@@H]1CC[C@]2(C(=O)O)CC[C@]3(C)[C@H](CC[C@@H]4[C@@]5(C)CC[C@H](O)C(C)(C)[C@@H]5[C@@H](O)[C@H](O)[C@]43C)[C@@H]12` here?
A: Its EC50 is 16.8 µg/mL (≈ 34.4 µM).

Q: And the EC50 [2]?
A: The EC50 was 10.9 µg/mL (≈ 22.3 µM).

Q: For `C=C(C)[C@@H]1CC[C@]2(C(=O)O)CC[C@]3(C)[C@H](CC[C@@H]4[C@@]5(C)CCC(=O)C(C)(C)[C@@H]5CC[C@]43C)[C@@H]12` [BETUNOLIC ACID], which EC50 [1] is on record?
A: The EC50 was 0.1 µg/mL (≈ 0.22 µM).

Q: And the EC50 [2]?
A: The EC50 was 16 µg/mL (≈ 35.2 µM).

Q: Which EC50 [1] does the source give for `C=C(C)[C@@H]1CC[C@]2(C(=O)O)CC[C@]3(C)[C@H](CC[C@@H]4[C@@]5(C)CC[C@H](O)C(C)(C)[C@@H]5CC[C@]43C)[C@@H]12` [BETULINIC ACID] here?
A: The EC50 was 1 µg/mL (≈ 2.19 µM).

Q: And the EC50 [2]?
A: The EC50 was 3.3 µg/mL (≈ 7.23 µM).

Reference: ChEMBL document CHEMBL1155645, “Microbial transformations of the antimelanoma agent betulinic acid” (2000)
